From paper PMC5698967, “A novel GH10 xylanase from Penicillium sp. accelerates saccharification of alkaline-pretreated bagasse by an enzyme from recombinant Trichoderma reesei expressing Aspergillus β-glucosidase” (Biotechnology for Biofuels, 2017) come the findings set out here.

For this test, the target named is T1, PspXyn10 (Penicillium sp., UniProt A0A2Z5XER4).
T1 construct: full-length cDNA (404 residues), predicted signal peptide 1-22 removed on secretion; GH10 (25-336) + CBM1 (372-404); untagged, expressed in Trichoderma reesei C1PX10, purified; 55 kDa on SDS-PAGE; internal peptides LYYNDYNLESAGAK, NHLTNVVTHYK, YAWDVVNEGLNDDGTYR
T1 sequence (A0A2Z5XER4 23-404): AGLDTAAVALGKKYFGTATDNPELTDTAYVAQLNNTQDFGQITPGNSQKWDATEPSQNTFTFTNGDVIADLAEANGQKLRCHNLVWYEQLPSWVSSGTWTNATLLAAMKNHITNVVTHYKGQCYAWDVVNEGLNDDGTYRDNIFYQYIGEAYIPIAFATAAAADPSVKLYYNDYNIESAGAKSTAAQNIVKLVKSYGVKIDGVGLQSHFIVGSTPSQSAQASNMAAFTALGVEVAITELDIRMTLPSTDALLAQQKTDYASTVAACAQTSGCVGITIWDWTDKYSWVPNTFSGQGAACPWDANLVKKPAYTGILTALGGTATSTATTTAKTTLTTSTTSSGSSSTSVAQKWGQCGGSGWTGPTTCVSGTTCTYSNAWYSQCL
Briefly: p-nitrophenol release, absorbance at […] nm. The test is classed as biochemical. The note with it: 1 mM substrate; 50 mM sodium acetate pH 5.0; 50 °C; 5 min.

Consider `O=[N+]([O-])c1ccc(O[C@@H]2OC[C@@H](O[C@@H]3OC[C@@H](O)[C@H](O)[C@H]3O)[C@H](O)[C@H]2O)cc1` [pNPX2, p-nitrophenyl xylobioside], for which the specific activity entry is “enzymatic activity of purified PspXyn10, JN11H, and JNK25H against p-nitrophenyl xylobioside (pNPX2) was assayed”.
